Results published in patent US20250388571A1, “AMP-ACTIVATED PROTEIN KINASE MODULATOR COMPOUNDS AND USES THEREOF” (Biolexis Therapeutics, Inc., priority 2024, published 2025).
Entries after “also recorded” stand apart in the source; their conditions may differ. Read-outs that look alike come from different tables or passages of the source.

Key:
[1] = tested on: human cardiomyocyte cells (HCM); assay: Glucose uptake assay, human cardiomyocyte cells; format: cell-based; conditions: for AMPK activation activity (glucose uptake assay): 10 doses 100 μM to 0.005 μM
[2] = Plasma and tissue concentration in high fat diet mice, day 36; format: in vivo, mice (Mus musculus—C57BL-6); conditions: for concentration at 1 h / concentration at 3 h / concentration at 4 h: male, C57BL-6, mouse, oral
Experimental: Doses were 30 and 50 mg/kg and administered orally (p.o.) once a day (QD) for 36 days. Dose volume was 10 mL/kg, which was administered to male, 18-22-week-old mice (Mus musculus—C57BL-6) with body weight between 18-19.4 g each. Mice were grouped into 3 groups of 10. The diet for induced obesity mice were selected as a test system
Plasma lipid profile: On day 34 total cholesterol levels, triglyceride, HDL, and LDL levels were detected. Plasma insulin (fasting) and plasma NEFA (fasting) was tested on day 36. Cumulative food consumption was measured daily starting from day 1 onwards up to end of the study period. Liver, heart, jejunum, and brain tissue were collected for additional testing.

HepG2 cells = assay: CyQUANT Cytotoxicity Assay (G6PD assay), HepG2; conditions: treated 2 hours
high fat diet mice = conditions: for % Body (percentage change in body weight): up to day 36

SMILES: O=c1[nH]c(-c2c[nH]c3cc(F)c(-c4ccc(C5(O)CCC5)cc4)c(F)c23)no1 [Compound I-11, 3-(4,6-difluoro-5-(4-(1-hydroxycyclobutyl)phenyl)-1H-indol-3-yl)-1,2,4-oxadiazol-5(4H)-one]
- AMPK activation activity (glucose uptake assay) ([1]; diabetic donor): did not show AMPK activation activity
- glucose uptake ([1]; donor not stated): did not induce glucose uptake in dose-dependent manner; also recorded: did not activate glucose uptake
- AMPK activation activity (glucose uptake assay) ([1]; healthy donor): did not show AMPK activation activity
- Brain (ng/mL) ([2]; 30 mg/kg, 1 hr): BLQ
- Brain (ng/mL) ([2]; 30 mg/kg, 3 hr): BLQ
- Skeletal muscle (ng/mL) ([2]; 30 mg/kg, 3 hr): BLQ
- Brain (ng/mL) ([2]; 50 mg/kg, 1 hr): BLQ
- Skeletal muscle (ng/mL) ([2]; 50 mg/kg, 1 hr): BLQ
- Brain (ng/mL) ([2]; 50 mg/kg, 3 hr): BLQ
- Skeletal muscle (ng/mL) ([2]; 50 mg/kg, 3 hr): BLQ
- Brain (ng/mL) ([2]; 50 mg/kg, 4 hr): BLQ
- Skeletal muscle (ng/mL) ([2]; 50 mg/kg, 4 hr): BLQ
- concentration at 1 h ([2]; adipose tissue (abdominal fat), 30 mg/kg, 1 hr, read-out: Adipose tissue (abdominal fat)): 57 ng/mL
- concentration at 3 h ([2]; adipose tissue (abdominal fat), 30 mg/kg, 3 hr, read-out: Adipose tissue (abdominal fat)): 23 ng/mL
- concentration at 4 h ([2]; adipose tissue (abdominal fat), 30 mg/kg, 4 hr, read-out: Adipose tissue (abdominal fat)): 38 ng/mL
- concentration at 1 h ([2]; adipose tissue (abdominal fat), 50 mg/kg, 1 hr, read-out: Adipose tissue (abdominal fat)): 2000 ng/mL
- concentration at 3 h ([2]; adipose tissue (abdominal fat), 50 mg/kg, 3 hr, read-out: Adipose tissue (abdominal fat)): 1590 ng/mL
- concentration at 4 h ([2]; adipose tissue (abdominal fat), 50 mg/kg, 4 hr, read-out: Adipose tissue (abdominal fat)): 1760 ng/mL
- concentration at 4 h ([2]; brain, 30 mg/kg, 4 hr, read-out: Brain): 6 ng/mL
- concentration at 1 h ([2]; heart, 30 mg/kg, 1 hr, read-out: Heart): 103 ng/mL
- concentration at 3 h ([2]; heart, 30 mg/kg, 3 hr, read-out: Heart): 32 ng/mL
- concentration at 4 h ([2]; heart, 30 mg/kg, 4 hr, read-out: Heart): 31 ng/mL
- concentration at 1 h ([2]; heart, 50 mg/kg, 1 hr, read-out: Heart): 52 ng/mL
- concentration at 3 h ([2]; heart, 50 mg/kg, 3 hr, read-out: Heart): 36 ng/mL
- concentration at 4 h ([2]; heart, 50 mg/kg, 4 hr, read-out: Heart): 102 ng/mL
- concentration at 1 h ([2]; jejunum, 30 mg/kg, 1 hr, read-out: Jejunum): 124000 ng/mL
- concentration at 3 h ([2]; jejunum, 30 mg/kg, 3 hr, read-out: Jejunum): 35 ng/mL
- concentration at 4 h ([2]; jejunum, 30 mg/kg, 4 hr, read-out: Jejunum): 27 ng/mL
- concentration at 1 h ([2]; jejunum, 50 mg/kg, 1 hr, read-out: Jejunum): 4390 ng/mL
- concentration at 3 h ([2]; jejunum, 50 mg/kg, 3 hr, read-out: Jejunum): 165 ng/mL
- concentration at 4 h ([2]; jejunum, 50 mg/kg, 4 hr, read-out: Jejunum): 55 ng/mL
- concentration at 1 h ([2]; liver, 30 mg/kg, 1 hr, read-out: Liver): 118 ng/mL
- concentration at 3 h ([2]; liver, 30 mg/kg, 3 hr, read-out: Liver): 74 ng/mL
- concentration at 4 h ([2]; liver, 30 mg/kg, 4 hr, read-out: Liver): 106 ng/mL
- concentration at 1 h ([2]; liver, 50 mg/kg, 1 hr, read-out: Liver): 80 ng/mL
- concentration at 3 h ([2]; liver, 50 mg/kg, 3 hr, read-out: Liver): 64 ng/mL
- concentration at 4 h ([2]; liver, 50 mg/kg, 4 hr, read-out: Liver): 71 ng/mL
- concentration at 1 h ([2]; plasma, 30 mg/kg, 1 hr, read-out: Plasma): 627 ng/mL
- concentration at 3 h ([2]; plasma, 30 mg/kg, 3 hr, read-out: Plasma): 147 ng/mL
- concentration at 4 h ([2]; plasma, 30 mg/kg, 4 hr, read-out: Plasma): 121 ng/mL
- concentration at 1 h ([2]; plasma, 50 mg/kg, 1 hr, read-out: Plasma): 501 ng/mL
- concentration at 3 h ([2]; plasma, 50 mg/kg, 3 hr, read-out: Plasma): 199 ng/mL
- concentration at 4 h ([2]; plasma, 50 mg/kg, 4 hr, read-out: Plasma): 112 ng/mL
- concentration at 1 h ([2]; skeletal muscle, 30 mg/kg, 1 hr, read-out: Skeletal muscle): 287 ng/mL
- concentration at 4 h ([2]; skeletal muscle, 30 mg/kg, 4 hr, read-out: Skeletal muscle): 56 ng/mL
- toxicity compared to reference compounds MK-8722 and PF-06409577 (G6PD release) (HepG2 cells): less toxicity
- % fat mass (high fat diet mice; 30 mg/kg p.o. QD, Day 14): 53.75 ± 0.88%
- area (cm^2; DEXA scan) (high fat diet mice; 30 mg/kg p.o. QD, Day 14): 13.26 ± 0.24 cm^2
- bone mineral content (BMC) (high fat diet mice; 30 mg/kg p.o. QD, Day 14): 1.04 ± 0.02
- bone mineral density (BMD) (high fat diet mice; 30 mg/kg p.o. QD, Day 14): 0.08 ± 0.00
- fat mass (gm) (high fat diet mice; 30 mg/kg p.o. QD, Day 14): 27.97 ± 0.67 gm
- lean+bone mineral content (BMC-gm) (high fat diet mice; 30 mg/kg p.o. QD, Day 14): 24.11 ± 0.71 gm
- total mass (gm) (high fat diet mice; 30 mg/kg p.o. QD, Day 14): 52.05 ± 1.04 gm
- % fat mass (high fat diet mice; 30 mg/kg p.o. QD, Day −3): 46.39 ± 0.83%
- area (cm^2; DEXA scan) (high fat diet mice; 30 mg/kg p.o. QD, Day −3): 12.61 ± 0.23 cm^2
- bone mineral content (BMC) (high fat diet mice; 30 mg/kg p.o. QD, Day −3): 1.01 ± 0.01
- bone mineral density (BMD) (high fat diet mice; 30 mg/kg p.o. QD, Day −3): 0.08 ± 0.00
- fat mass (gm) (high fat diet mice; 30 mg/kg p.o. QD, Day −3): 23.20 ± 0.60 gm
- lean+bone mineral content (BMC-gm) (high fat diet mice; 30 mg/kg p.o. QD, Day −3): 26.78 ± 0.50 gm
- total mass (gm) (high fat diet mice; 30 mg/kg p.o. QD, Day −3): 49.96 ± 0.75 gm
- % Body (percentage change in body weight) (high fat diet mice; 30 mg/kg p.o. QD): 1.40 ± 0.21%
- % fat mass (high fat diet mice; 50 mg/kg p.o. QD, Day 14): 50.05 ± 1.02%
- area (cm^2; DEXA scan) (high fat diet mice; 50 mg/kg p.o. QD, Day 14): 12.93 ± 0.23 cm^2
- bone mineral content (BMC) (high fat diet mice; 50 mg/kg p.o. QD, Day 14): 1.04 ± 0.02
- bone mineral density (BMD) (high fat diet mice; 50 mg/kg p.o. QD, Day 14): 0.08 ± 0.00
- fat mass (gm) (high fat diet mice; 50 mg/kg p.o. QD, Day 14): 25.95 ± 0.84 gm
- lean+bone mineral content (BMC-gm) (high fat diet mice; 50 mg/kg p.o. QD, Day 14): 25.83 ± 0.49 gm
- total mass (gm) (high fat diet mice; 50 mg/kg p.o. QD, Day 14): 51.78 ± 0.85 gm
- % fat mass (high fat diet mice; 50 mg/kg p.o. QD, Day −3): 46.37 ± 2.15%
- area (cm^2; DEXA scan) (high fat diet mice; 50 mg/kg p.o. QD, Day −3): 12.56 ± 0.30 cm^2
- bone mineral content (BMC) (high fat diet mice; 50 mg/kg p.o. QD, Day −3): 1.01 ± 0.02
- bone mineral density (BMD) (high fat diet mice; 50 mg/kg p.o. QD, Day −3): 0.08 ± 0.00
- fat mass (gm) (high fat diet mice; 50 mg/kg p.o. QD, Day −3): 23.44 ± 1.29 gm
- lean+bone mineral content (BMC-gm) (high fat diet mice; 50 mg/kg p.o. QD, Day −3): 26.97 ± 1.03 gm
- total mass (gm) (high fat diet mice; 50 mg/kg p.o. QD, Day −3): 50.40 ± 0.80 gm
- % Body (percentage change in body weight) (high fat diet mice; 50 mg/kg p.o. QD): −0.34 ± 0.73%
- clinical signs, morbidity, mortality (high fat diet mice; 30 and 50 mg/kg p.o. QD for 36 days): no observations of clinical signs or morbidity, and no mortality
